Inconclusive results are not listed. The source made the active and inactive calls. How the calls were made is not given here.
tested on: Mycobacterium tuberculosis non-replicating, growth inhibition; experiment: growth inhibition of non-replicating M. tuberculosis (AID 488890)

O=C(NNc1nc2ccccc2s1)c1ccc(F)cc1 was tested, and the IC50 was 43.8 µM (inactive).
With CCCNC(=O)c1ccc(COc2ccc(C)cc2)o1 the IC50 was 32.9 µM (inactive).
For Cc1cccc(-c2nnc3sc(-c4ccccc4C)nn23)c1, the IC50 was 22.4 µM (inactive).
For CCCc1cc(=O)n2[nH]c(C)c(-c3ccccc3)c2n1, the IC50 was 11.4 µM (inactive).
With N=c1oc2ccccc2cc1C(=O)Nc1ccccc1 the IC50 was 33 µM (inactive).
CNc1nc(-c2ccccn2)nnc1-c1ccccc1 was tested, and the IC50 was 16.2 µM (inactive).
In the case of CC(=O)N(c1nnc(-c2ccc(C)cc2)s1)C1CCCC1, the IC50 is reported as 26.2 µM (inactive).
In the case of CCCc1cc(C(=O)Nc2cccc(C(C)=O)c2)no1, the IC50 is reported as 10.2 µM (inactive).
For CCCCCCOC(=O)C(C#N)c1nc2ccccc2nc1N1CCN(CC)CC1 (stereo not given), the IC50 was 13.9 µM (inactive).
In the case of O=C(c1cc2ccccc2o1)c1nc2c(n1O)CCCCC2, the IC50 is reported as 12.8 µM (inactive).
With CN(CCS(=O)(=O)c1ccc(Cl)cc1)Cc1cccnc1 the IC50 was 13.2 µM (inactive).
For S=c1[nH]c2ccccc2o1, the IC50 was 27.5 µM (inactive).
With O=c1c2cc(Cl)ccc2nc(-c2ccccc2Cl)n1O the IC50 was 15.5 µM (inactive).
With O=C(CCCSc1nc2ccccc2s1)NCc1ccco1 the IC50 was 10.7 µM (inactive).
In the case of O=C(Nc1sc2c(c1C(=O)O)CCCC2)c1ccc(F)cc1, the IC50 is reported as 24.3 µM (inactive).
For Cc1cc(C)c(OCC(=O)Nc2nnc(-c3ccco3)o2)c(C)c1, the IC50 was 45.3 µM (inactive).
For CN(C)CCCNc1cc(C(C)(C)C)nc2c(-c3ccccc3)cnn12, the IC50 was 18.6 µM (inactive).
In the case of Cc1ccc(C(=O)Oc2cccc(-n3cnnn3)c2)cc1, the IC50 is reported as 25.3 µM (inactive).
O=C(Nc1ncccc1O)c1ccc(Oc2ccccc2)cc1 was tested, and the IC50 was 20.5 µM (inactive).
In the case of COC(=O)CCc1nc2c(C#N)c(-c3ccc(Cl)cc3)ccn2n1, the IC50 is reported as 24.3 µM (inactive).
For O=C(NNc1ccc([N+](=O)[O-])cc1)C1CC2CCCC(C1)C2=O (stereo not given), the IC50 was 16.2 µM (inactive).
In the case of CN(C)CCCNc1nc2sc3c(c2c(=O)n1CCc1ccccc1)CCCCC3, the IC50 is reported as 12 µM (inactive).
For O=C(COC(=O)CC1CCCC1)Nc1ccc(OC(F)F)cc1, the IC50 was 10.8 µM (inactive).
COc1ccc(C(=O)COC(=O)COc2ccc(C)c(C)c2)cc1 was tested, and the IC50 was 20.7 µM (inactive).
In the case of O=C(CCNc1cccc(Cl)c1)c1cccs1, the IC50 is reported as 11 µM (inactive).

CC(NCc1ccc(OCc2ccc(Cl)cc2)cc1)C(O)c1ccccc1 (stereo not given) and CCOC(=O)C1=C(c2ccccc2)NC(N)=NC1c1ccc(OCc2ccc(C(=O)OC)cc2)cc1 (stereo not given) are within 1.5-fold of each other in IC50: 6.84 µM for the first, 5.85 µM for the second.

CCOC(=O)c1cnc(Nc2nc3ccccc3o2)nc1CSC(=S)N1CCCCC1 and CCOC(=O)c1csc(COc2ccccc2Cl)n1 are within 1.5-fold of each other in IC50: 1.49 µM for the first, 1.57 µM for the second.

Going from Cc1cccc(NC(=O)COc2ccc(Br)cc2)n1 to O=C(COc1ccc(F)cc1)N/N=C/c1cccc2cccnc12, the IC50 falls from 7.08 µM to 3.84 µM (1.8-fold).

First: O=C(O)c1ccccc1C(=O)NNc1ccc(Cl)cc1
Second: O=C(N/N=C/c1coc2ccccc2c1=O)c1ccc(Cl)cc1
The IC50 of the first is 4.2-fold higher: 4.09 µM for the first, 0.97 µM for the second. The second is the more potent here.

Compared with O=C(Nc1nnc(-c2ccc(F)cc2)o1)c1cc(Cl)sc1Cl, O=C(NCc1ccc(F)cc1)c1ccc(Br)o1 is 16-fold lower in IC50: 7.95 µM for the first, 0.51 µM for the second.

Going from c1ccc(Nc2nc(-c3ccccn3)cs2)cc1 to C(=C\c1ccccc1)/CSc1nc2ncccc2[nH]1, the IC50 rises from 2.66 µM to 4.36 µM (1.6-fold).

C/C(=N\Nc1ccc(Cl)cc1)c1c(O)cc(C)oc1=O and O=C(N/N=C/c1ccc[nH]1)c1ccc(Cl)cc1 are within 1.5-fold of each other in IC50: 3.61 µM for the first, 3.88 µM for the second.

CCOc1cc(CNCCO)cc(Br)c1OCc1ccccc1Cl and CCCNC(=O)NC(=O)COc1ccc2oc3ccccc3c2c1 are within 1.5-fold of each other in IC50: 6.17 µM for the first, 5.09 µM for the second.

First: Nc1ccc2cc(Br)ccc2c1
Second: Oc1ccc2cc(Br)ccc2c1CN1CCCC1
The IC50 of the first is 17-fold lower: 0.44 µM for the first, 7.29 µM for the second.

CC(C)(c1ccccc1)c1ccc(OCC(O)CNC2CCN(Cc3ccccc3)CC2)cc1 (stereo not given) and CCCCN(C/C=C/c1ccccc1OC)Cc1ccccc1 are within 1.5-fold of each other in IC50: 5.9 µM for the first, 8.78 µM for the second.

First: Cc1ccc(C(=O)O/N=C(\N)c2cccc([N+](=O)[O-])c2)cc1
Second: O=C(Oc1cccc2cccnc12)c1cccc([N+](=O)[O-])c1
The IC50 of the first is 2.3-fold higher: 7 µM for the first, 3 µM for the second.

CCOC(=O)COc1ccc2c(=O)c(-c3ccccc3OC)coc2c1 and COC(=O)COc1ccc2c(-c3cccc([N+](=O)[O-])c3)cc(=O)oc2c1 are within 1.5-fold of each other in IC50: 2.28 µM for the first, 1.84 µM for the second.

O=[N+]([O-])c1ccc2nc(SCc3cn4ccccc4n3)[nH]c2c1 and O=C(Oc1cccc([N+](=O)[O-])c1)c1ccc2c(=O)n3c(nc2c1)CCC3 are within 1.5-fold of each other in IC50: 8.98 µM for the first, 6.82 µM for the second.

Going from O=C(N/N=C/c1ccc([N+](=O)[O-])o1)c1ccc(NS(=O)(=O)c2cccs2)cc1 to Cc1ccc(CNC(=O)c2ccc([N+](=O)[O-])o2)cc1, the IC50 falls from 9.88 µM to 0.46 µM (21-fold). The second is the more potent here.

Compared with O=C(COC(=O)c1ccc(Br)o1)NCCCc1ccccc1, CN1/C(=C\C(=O)COC(=O)c2ccc([N+](=O)[O-])o2)C(C)(C)c2ccccc21 is 1.8-fold lower in IC50: 6.5 µM for the first, 3.61 µM for the second.

First: COCCn1c(C)cc(C(=O)COC(=O)c2ccc([N+](=O)[O-])o2)c1C
Second: Cc1ccccc1NC(=O)c1ccc([N+](=O)[O-])o1
The IC50 of the first is 2.5-fold lower: 2.79 µM for the first, 7.05 µM for the second. The first is the more potent here.

Going from NC1=NC[C@H](Cc2ccc(O)cc2)N1CCc1cccc2ccccc12 to CC(=O)Nc1nc2ccccc2n1Cc1ccc(C)cc1, the IC50 falls from 8.19 µM to 3.21 µM (2.6-fold).

First: CC(Cc1cccs1)NC(=O)c1cccc(Cl)c1 (stereo not given)
Second: CS/C(Nc1cc(Cl)ccc1Cl)=C(/C#N)C(=O)c1ccco1
The IC50 of the first is 5.4-fold higher: 8.14 µM for the first, 1.5 µM for the second. The second is the more potent here.

First: C/C(Cn1nnc([N+](=O)[O-])n1)=N\NC(=O)c1ccncc1
Second: Cc1ccc(-c2nn(-c3ccccc3)cc2/C=N/NC(=O)c2ccncc2)o1
The IC50 of the first is 3.7-fold lower: 1.63 µM for the first, 6.11 µM for the second.

O=C(COc1ccccc1)NC1CCCCC1 and O=C(NC(=S)Nc1ccc(F)cc1)C1CCCCC1 are within 1.5-fold of each other in IC50: 0.61 µM for the first, 0.71 µM for the second.

Compared with O=C(C1CCN(C2CC(=O)N(Cc3ccccc3)C2=O)CC1)N1CCCCCC1 (stereo not given), O=[N+]([O-])c1ccc(CN2CCN(c3ccccc3)CC2)o1 is 11-fold lower in IC50: 7.22 µM for the first, 0.64 µM for the second.

Compared with CCC(=O)N1CCN(c2cc3c(cc2F)c(=O)c(C(=O)O)cn3CC)CC1, O=[N+]([O-])c1ccc(CN2CCN(c3ccc(Cl)cc3)CC2)o1 is lower in IC50: 7.67 µM for the first, less than 0.1 µM for the second.

First: CCCCCn1nnc2c(=O)oc3ccccc3c21
Second: COc1cccc2cc(-c3nc4ccccc4o3)c(=O)oc12
The IC50 of the first is 6.1-fold lower: 1.2 µM for the first, 7.31 µM for the second.

O=C(N/N=C/c1cc(Br)cc(Cl)c1O)c1ccc2c(c1)OCO2 and O=c1c2cc(Cl)ccc2nc(-c2ccc(Cl)c(Cl)c2)n1O cannot be ordered by IC50: less than 0.1 µM for the first, less than 0.1 µM for the second.

Cc1ccc(NC(=O)COC(=O)CCc2c[nH]c3ccccc23)cc1[N+](=O)[O-] and Cc1cccc(NC(=O)COC(=O)CCc2c[nH]c3ccccc23)c1C are within 1.5-fold of each other in IC50: 4.83 µM for the first, 6.12 µM for the second.

COc1cc(/C=C2/C(=O)NN(c3ccc(Cl)cc3)C2=O)ccc1OC(=O)c1ccco1 and Cn1cccc1/C=C1/C(=O)NC(=S)N(Cc2ccc(F)cc2)C1=O are within 1.5-fold of each other in IC50: 5.12 µM for the first, 6.03 µM for the second.

O=C(NC(=S)NNC(=O)[C@H]1C[C@@H]1c1ccccc1)c1cccc(F)c1 and COc1ccc(/C=N/Nc2cc(C)nc3ccccc23)cc1 are within 1.5-fold of each other in IC50: 6.69 µM for the first, 8.43 µM for the second.

Going from O=C(CCN1CCOCC1)c1ccc(Br)cc1 to O=C(CCN1CCOCC1)c1ccc(Cl)cc1, the IC50 rises from 3.83 µM to 7.01 µM (1.8-fold). The first is the more potent here.

First: CCOc1ccc(OCC(=O)OCc2cc(=O)n3cc(Br)ccc3n2)cc1
Second: CCCOC(=O)c1ccc(-c2ccc(C=O)o2)cc1
The IC50 of the first is 7.1-fold higher: 8.96 µM for the first, 1.27 µM for the second. The second is the more potent here.

First: CNc1nnc(Sc2ncccc2[N+](=O)[O-])s1
Second: Cc1cc2ncn(/N=C/c3ccc([N+](=O)[O-])s3)c2cc1C
The IC50 of the first is 5.3-fold higher: 5.8 µM for the first, 1.09 µM for the second. The second is the more potent here.
